The record followed here is patent publication US20020071842A1, “Soluble CD1 compositions and uses thereof” (priority 2000, published 2002).

For experiment [1], the system named is human CD1d-restricted T cell clones. Description: Flow cytometric staining with lipid treated multimerized CD1d-Fc aggregates. The format is cell-based. Particulars: flow cytometry; human CD1d-Fc/Alexa 488 protein A aggregate, 40:1 lipid to fusion protein, compared with DMSO alone. The procedure:
To facilitate binding to CD1 specific T cells for detection by flow cytometry, a highly multimerized form of the CD1d fusion protein was formed using fluorescently labeled protein A molecules. Protein A molecules spontaneously associate in solution at neutral pH with immunoglobulin Fc regions, forming complexes containing four Fc molecules and two protein A molecules (4+2 complexes, reference 2). The human CD1d-Fc fusion protein was incubated with Alexa 488 dye labeled protein A, and the 4+2 complexes purified by size exclusion chromatography on a Pharmacia Superose 6 column using PBS pH 7.2 as a running buffer. The purified 4+2 aggregates were concentrated to 100 μg/ml with ovalbumin as a carrier protein. The CD1d-Fc aggregate was then pre-incubated for 24 to 48 hours at 37° C. with antigenic glycolipids dissolved in DMSO at a 40:1 molar ratio of lipid to fusion protein, or with an equivalent volume of DMSO alone as a negative control. The T cell staining was performed at room temperature or 4° C. for 20 min, at a concentration of 40 μg/ml of the lipid or control treated CD1d-Fc aggregate.
To facilitate binding to CD1 specific T cells for detection by flow cytometry, a highly multimerized form of the CD1d fusion protein is formed using fluorescently labeled protein A molecules. Protein A molecules spontaneously associate in solution at neutral pH with immunoglobulin Fc regions, forming complexes containing four Fc molecules and two protein A molecules (4+2 complexes, Langone, J.J. et al, Molec. and Cell. Biochem, 65(2):159-70 (1985)). The human CD1d-Fc fusion protein was incubated with Alexa 488-dye labeled protein A, and the 4+2 complexes purified by size exclusion chromatography on a Phannacia Superose 6 column using PBS pH 7.2 as a running buffer. The purified 4+2 aggregates are concentrated to 100 μg/ml with ovalbumin as a carrier protein. The CD1d-Fc aggregate is then pre-incubated for 24 to 48 hours at 37° C. with antigenic glycolipids dissolved in DMSO at a 40:1 molar ratio of lipid to fusion protein, or with an equivalent volume of DMSO alone as a negative control. The T cell staining is performed at room temperature or 4° C. for 20 min, at a concentration of 40 μg/ml of the lipid or control treated CD1d-Fc aggregate.
Flow cytometric analysis of a CD1d-restricted T cell clone stained with the multimerized CD1d-Fc fusion protein (abbreviated as “hd(8)-fl”) was performed as follows. Staining with CD1d-Fc treated with lipid antigens dissolved in DMSO was compared with CD1d-Fc treated with DMSO alone as a negative control. The specific lipid antigen used were: aGalCer is α-galactosyl ceramide (KRN7000); aGlcCer is α-glucosyl ceramide; aManCer is α-mannosyl ceramide; bGalCer is β-galactosyl ceramide; Cer is ceramide (acylphytosphingolipid).
Flow cytometric analysis of a series of human T cell clones stained with the multimerized CD1d-Fc fusion protein, treated with α-GalCer or DMSO alone also was performed, including staining of two different CD1d-restricted (“NKT”) T cell clones DN2.B9 and DN1.10B3. Four other T cell clones that are not CD1d-restricted also were stained.

A further experiment concerns 24.8.A hybridoma. Description: Plate-bound mCD1d fusion protein hybridoma stimulation assay (IL-2 ELISA). The format is cell-based, mouse. Particulars: 24.8 A NKT hybridoma; plate-bound mCD1d-IgGFc2a fusion protein preincubated with lipid antigen. The method, boiled down: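 Protein A plates were loaded with 400-600 ng/well mCD1d fusion protein, then given lipid antigen (40:1 molar ratio to fusion protein unless specified) in PBS pH 7.2 for 24-48 h at 37 °C. After washing, 1×10^5 hybridoma cells/well were added for 16-20 h at 37 °C. Secreted IL-2 measured by sandwich ELISA against a murine IL-2 standard curve.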

A further experiment relates to 14S.10.C hybridoma. The description is as above. Particulars: 14S.10 C diverse TCR hybridoma; plate-bound mCD1d-IgGFc2a fusion protein preincubated with lipid antigen. The format is cell-based, mouse. In short, it runs like this: (§1)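 Fusion protein (400-600 ng/well) captured on protein A plates; lipid added in PBS pH 7.2, 40:1 default ratio; 24-48 hr 37° C; washed; hybridomas 1×10^5/well, 16-20 hr 37° C; IL-2 ELISA vs standard curve. Some wells: anti-mCD1d 19G11 at 20 μg/ml final.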

In another experiment the test system is 14S.15.A hybridoma. The experiment is described as above. The format is cell-based, mouse. Particulars: 14S.15.A diverse TCR hybridoma; plate-bound mCD1d-IgGFc2a fusion protein preincubated with lipid antigen. In short, it runs like this: as §1
The next experiment deals with 14S.6.A hybridoma. Described as above. The format is cell-based, mouse. Particulars: 14S.6.A diverse TCR hybridoma; plate-bound mCD1d-IgGFc2a fusion protein preincubated with lipid antigen. In short, it runs like this:
as §1

A further experiment deals with 14S.7.N hybridoma. Described as above. The format is cell-based, mouse. Particulars: 14S.7.N diverse TCR hybridoma; plate-bound mCD1d-IgGFc2a fusion protein preincubated with lipid antigen. The method, boiled down:
as §1

For another experiment, the system named is 24.7.C hybridoma. The experiment is described as above. The format is cell-based, mouse. Particulars: 24 7.C NKT hybridoma; plate-bound mCD1d-IgGFc2a fusion protein preincubated with lipid antigen. In short, it runs like this:
as §1

The next experiment has as its system 24.9.E hybridoma. The description is as above. The format is cell-based, mouse. Particulars: for IL-2 secretion: 24.9 E NKT hybridoma, plate-bound mCD1d-IgGFc2a fusion protein preincubated with lipid antigen. The method, boiled down: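 Lipid antigens were incubated with protein A-immobilized mCD1d fusion protein at pH 7.2 (or in citrate/phosphate buffer of specified pH, then neutralized), typically 40:1 antigen:protein. After washing, 1×10^5 hybridoma cells per well were added overnight, 16-20 hr, and IL-2 in supernatants was read by ELISA.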

The subject of the next experiment is DN32D3 hybridoma. The description is as above. The format is cell-based, mouse. Particulars: DN32D3 NKT hybridoma; plate-bound mCD1d-IgGFc2a fusion protein preincubated with lipid antigen. The method, boiled down: as §1
Another experiment relates to KT/12 hybridoma. Described as above. Particulars: KT/12 NKT hybridoma; plate-bound mCD1d-IgGFc2a fusion protein preincubated with lipid antigen. The format is cell-based, mouse. In short, it runs like this:
as §1

The next experiment has as its system KT/22 hybridoma. The experiment is described as above. Conditions: KT/22 NKT hybridoma; plate-bound mCD1d-IgGFc2a fusion protein preincubated with lipid antigen. The format is cell-based, mouse. In short, it runs like this:
as §1

Another experiment relates to KT/23 hybridoma. The experiment is described as above. Conditions: KT/23 NKT hybridoma; plate-bound mCD1d-IgGFc2a fusion protein preincubated with lipid antigen. The format is cell-based, mouse. The method, boiled down: as §1
Another experiment has as its system KT/7 hybridoma. The description is as above. The format is cell-based, mouse. Conditions: KT/7 NKT hybridoma; plate-bound mCD1d-IgGFc2a fusion protein preincubated with lipid antigen. In short, it runs like this:
as §1

The test system of the next experiment is VII68 hybridoma. Described as above. The format is cell-based, mouse. Conditions: VII68 diverse TCR hybridoma; plate-bound mCD1d-IgGFc2a fusion protein preincubated with lipid antigen. In short, it runs like this: as §1
For a further experiment, the system named is VIII24 hybridoma. The description is as above. The format is cell-based, mouse. Particulars: VIII24 diverse TCR hybridoma; plate-bound mCD1d-IgGFc2a fusion protein preincubated with lipid antigen. In short, it runs like this: as §1
The subject of a further experiment is Vβ/9 hybridoma. The experiment is described as above. The format is cell-based, mouse. Conditions: Vβ/9 NKT hybridoma; plate-bound mCD1d-IgGFc2a fusion protein preincubated with lipid antigen. In short, it runs like this:
as §1

A further experiment relates to XV104 hybridoma. Described as above. Conditions: XV104 diverse TCR hybridoma; plate-bound mCD1d-IgGFc2a fusion protein preincubated with lipid antigen. The format is cell-based, mouse. The method, boiled down: as §1
The next experiment has as its system XV19 hybridoma. Described as above. The format is cell-based, mouse. Conditions: XV19 diverse TCR hybridoma; plate-bound mCD1d-IgGFc2a fusion protein preincubated with lipid antigen. The method, boiled down: as §1

As to α-glucosyl ceramide [α-GlcCer], the “staining of CD1d-restricted T cell clones by lipid treated CD1d-Fc aggregate” value in experiment [1] was “positive staining”.
Take α-mannosyl ceramide [α-ManCer]: the “staining of CD1d-restricted T cell clones by lipid treated CD1d-Fc aggregate” value in [1] was “did not stain above background levels”.
For the substance gangliotriosyl ceramide [aGM2], the IL-2 secretion result in the experiment with 24.8.A hybridoma is reported as “+ (“+” indicates 50-250 pg/ml)”; in the experiment with 14S.10.C hybridoma it was 0 (A “0” indicates a mean of less than 50 pg/ml IL-2 was secreted); in the experiment with 14S.15.A hybridoma, 0 (A “0” indicates a mean of less than 50 pg/ml IL-2 was secreted); in the experiment on 14S.6.A hybridoma it was 0 (A “0” indicates a mean of less than 50 pg/ml IL-2 was secreted); with 14S.7.N hybridoma it was 0 (A “0” indicates a mean of less than 50 pg/ml IL-2 was secreted); in the experiment with 24.7.C hybridoma, 0 (A “0” indicates a mean of less than 50 pg/ml IL-2 was secreted). Further, the IL-2 secretion in the experiment on 24.9.E hybridoma, in the experiment with DN32D3 hybridoma, in the experiment on KT/12 hybridoma, with KT/22 hybridoma, in the experiment on KT/23 hybridoma and in the experiment with KT/7 hybridoma was 0 (A “0” indicates a mean of less than 50 pg/ml IL-2 was secreted) in each case. Besides, the IL-2 secretion with VII68 hybridoma, with VIII24 hybridoma, with Vβ/9 hybridoma, in the experiment with XV104 hybridoma and with XV19 hybridoma was 0 (A “0” indicates a mean of less than 50 pg/ml IL-2 was secreted) each time. The “IL-2 response to mCD1d fusion protein pre-treated with purified or synthetic lipid” value in the experiment with 24.9.E hybridoma (24.9.E hybridoma) is on record as “not recognized”.
Consider sphingomyelin, for which the IL-2 secretion result is listed as “+ (“+” indicates 50-250 pg/ml)” with 24.8.A hybridoma; 0 (A “0” indicates a mean of less than 50 pg/ml IL-2 was secreted) in the experiment on 14S.10.C hybridoma; “+ (“+” indicates 50-250 pg/ml)” with 14S.15.A hybridoma; 0 (A “0” indicates a mean of less than 50 pg/ml IL-2 was secreted) in the experiment with 14S.6.A hybridoma; 0 (A “0” indicates a mean of less than 50 pg/ml IL-2 was secreted) in the experiment with 14S.7.N hybridoma; 0 (A “0” indicates a mean of less than 50 pg/ml IL-2 was secreted) in the experiment on 24.7.C hybridoma. In addition, the IL-2 secretion in the experiment on 24.9.E hybridoma, in the experiment on DN32D3 hybridoma, in the experiment on KT/12 hybridoma, in the experiment on KT/22 hybridoma, in the experiment with KT/23 hybridoma and in the experiment with KT/7 hybridoma was 0 (A “0” indicates a mean of less than 50 pg/ml IL-2 was secreted) in each case. Further, the IL-2 secretion with VII68 hybridoma, in the experiment on VIII24 hybridoma, in the experiment on Vβ/9 hybridoma, in the experiment with XV104 hybridoma and with XV19 hybridoma was 0 (A “0” indicates a mean of less than 50 pg/ml IL-2 was secreted) in each case.
